Test results: paper PMC7738508, “A therapeutic combination of two small molecule toxin inhibitors provides broad preclinical efficacy against viper snakebite” (Nature Communications, 2020)
Where “and” joins values, the source holds several entries; their conditions need not be identical. Equal values may be shown once. Read-outs that look alike come from different tables or passages of the source.

Tests used:
[1] = cited from earlier work
E. ocellatus venom = test: in vivo preincubation model of envenoming (i.v.); design: species or system CD-1 mice
Method: All animal experiments were conducted using protocols approved by the Animal Welfare and Ethical Review Boards of the Liverpool School of Tropical Medicine and the University of Liverpool, and performed in specific pathogen-free conditions under licensed approval (PPL #4003718 and #P5846F90) of the UK Home Office and in accordance with the Animal [Scientific Procedures] Act 1986 and institutional guidance on animal care. All experimental animals (18–20 g [4–5 weeks old], male, CD-1 mice, Charles River, UK) were housed in groups of five with environmental enrichment, water and food ad libitum and their health monitored daily during acclimatization. The experimental design was based upon 3R-refined WHO-recommended protocols[28],[41], with animals randomized and observers being blinded to the experimental condition. The median lethal doses (venom LD50) used for E. ocellatus (Nigeria), E. carinatus (India), B. asper (Costa Rica), D. russelii (Sri Lanka) and B. arietans (Nigeria) venoms were previously determined[25],[41],[44],[45].
All experimental doses were prepared to a volume of 200 µl in PBS and incubated at 37 °C for 30 min prior to their intravenous injection via the tail vein. Animals were monitored for 6 h, and euthanized via rising concentrations of CO2 upon observation of previously defined humane end points that are predicators of lethality (e.g., seizure, pulmonary distress, paralysis, hemorrhage)[28]. Deaths, time of death, and survivors were recorded; where death/time of death actually represents the implementation of euthanasia based on defined humane end points.
For all experimental animals described above, blood samples were collected via cardiac puncture immediately post-euthanasia. Plasma was separated by centrifugation at 400 × g for 10 min and stored at −80 °C. We assessed the levels of thrombin-antithrombin complexes (TAT) and soluble thrombomodulin using mouse ELISA Kits (ab137994 and ab209880, Abcam), following the manufacturer’s protocol. All available plasma samples (some were unobtainable via cardiac puncture due to extensive internal hemorrhage) were assessed if the time of death within the group varied, whereas three samples were randomly chosen if the time of death was the same (e.g., either very rapid death within 2 min, or survival until the end of the experiment [360 min or 24 h]). The resulting data was plotted as the median of duplicate measurements for each animal and is presented with standard deviations (SDs).

[2] = tested on: SVMP bioactivity of the four active venoms (E. ocellatus, E. carinatus, B. asper, B. arietans); test: in vitro kinetic fluorogenic SVMP assay, viper venoms overall; type: biochemical; conditions: four active venoms; marimastat 150 nM to 150 µM, batimastat […] and 150 nM
Method: (§1) The SVMP assay measuring metalloproteinase activity and the plasma assay measuring coagulation in the presence or absence of venoms and inhibitors were performed as previously described. The SVMP assay kinetically measured cleavage of a quenched fluorogenic substrate (ES010, R&D Biosystems) by venom in the presence or absence of inhibitors.
(§2) Briefly, 10 µl of the substrate (supplied as a 6.2 mM stock) was used per 5 ml reaction buffer (150 mM NaCl, 50 mM Tris-Cl pH 7.5). Reactions consisted of 10 µl of venom ± inhibitors in PBS and 90 µl of substrate. Venoms were used at 1 µg/reaction and final inhibitor concentrations ranged from 150 µM to 150 nM. Samples were preincubated for 30 min at 37 °C and pipetted in triplicate into 384-well plates (Greiner). Thereafter, data was collected on an Omega FLUOstar (BMG Labtech) instrument at an excitation wavelength of 320 nm and emission wavelength of 405 nm at 25 °C for 1 h. The areas under the curve (AUCs) in the 0–40 min interval were calculated for each sample using MARS data analysis software v3.31 (BMG Labtech); this time point was chosen as the time where all fluorescence curves had reached a plateau (maximum fluorescence). For comparing venom-only samples, the means of at least three independent experimental runs for each condition, expressed as AUCs (n ≥ 3), were plotted at each inhibitor concentration with standard error of the mean (SEM). To determine inhibitor efficacy, the AUCs for each of the samples that consisted of venom + inhibitors were transformed and expressed as percentages of the venom-only sample (where the venom was 100%). The negative control (PBS-only) was also expressed relative to the venom, and the variation in background was presented as an interval delineated by the lowest and highest values in the PBS-only samples across concentrations and inhibitors for a specific venom.

[3] = type: in vivo, CD-1 mice; conditions: no venom; 60 µg of each drug, i.v.; listed as M
Method: For all experimental animals described above, blood samples were collected via cardiac puncture immediately post-euthanasia. Plasma was separated by centrifugation at 400 × g for 10 min and stored at −80 °C. We assessed the levels of thrombin-antithrombin complexes (TAT) and soluble thrombomodulin using mouse ELISA Kits (ab137994 and ab209880, Abcam), following the manufacturer’s protocol. […] The resulting data was plotted as the median of duplicate measurements for each animal and is presented with standard deviations (SDs).

[4] = tested on: procoagulant activity of viper venoms (citrated bovine plasma); test: plasma clotting assay, viper venoms overall; type: biochemical; conditions: range across all venoms; lower end of dimercaprol and marimastat ranges given as < 0.15; read-out: IC50, inhibition of procoagulant venom activity
Method: We used a previously developed plasma clotting assay[35] to measure venom-induced coagulation. Briefly, 100 ng of each venom was incubated at 37 °C for 30 min in the presence or absence of inhibitors (150 µM to 150 nM final concentrations). The final reaction consisted of 10 µl venom ± inhibitors in PBS, 20 µl 20 mM CaCl2, and 20 µl citrated bovine plasma (VWR). The samples were pipetted in triplicate into 384-well plates, and absorbance monitored at 595 nm for 2 h at 25 °C on an Omega FLUOstar instrument. We calculated the maximum clotting velocity of each of the curves as per clot waveform analysis, by calculating the maximum of the first derivative. The means of at least three independent experimental runs for each condition were plotted at each inhibitor concentration with SEMs.

[5] = design: method as in PMID 29735645; conditions: cited from earlier work
[6] = tested on: Echis carinatus venom SVMP activity; test: fluorogenic SVMP assay; type: biochemical; conditions: inhibitor 15 µM, independent repeats
Method: as §1, §2

[7] = tested on: Bothrops asper venom SVMP activity; test: fluorogenic SVMP assay; type: biochemical; conditions: independent repeats
Method: as §1, §2

[8] = tested on: Echis ocellatus venom SVMP activity; test: fluorogenic SVMP assay; type: biochemical; conditions: independent repeats
Method: as §1, §2

[9] = tested on: Bitis arietans venom SVMP activity; test: fluorogenic SVMP assay; type: biochemical; conditions: independent repeats
Method: as §1, §2

CNC(=O)[C@@H](NC(=O)[C@H](CC(C)C)[C@H](O)C(=O)NO)C(C)(C)C [marimastat]
daily doses with no notable side effects ([1]; 28 days, patients with advanced pancreatic cancer): 75 mg | single doses with no notable side effects [1]: up to 800 mg | bidaily doses with no notable side effects ([1]; for 6.5 days): 200 mg | oral bioavailability ([1]; no reference given): 70% | half-life ([1]; oral): 8 to 10 h | time to peak plasma concentrations post-administration ([1]; oral): 1.5 to 3 h | oral bioavailability ([1]; vs parenteral administration of batimastat): excellent oral bioavailability | animals surviving the 6 h experiment (groups of five) (E. ocellatus venom; 45 µg E. ocellatus venom preincubated with 60 µg inhibitor/mouse, i.v.): four | protection against venom-induced lethality (E. ocellatus venom; 45 µg E. ocellatus venom preincubated with 60 µg of each drug, i.v., 6 h): prolonged the survival | thrombin-antithrombin (TAT) levels, range in group (E. ocellatus venom; plasma after euthanasia, E. ocellatus venom + 60 µg of each drug, venom-only mean 1127.3, normal mice 10.2–15.9): 231.2 to 267.9 ng/mL | neutralization of SVMP bioactivity [2]: complete in vitro neutralization | thrombin-antithrombin (TAT) levels, drug-only control animals [3]: 16.1111 ng/mL and 15.7371 ng/mL and 12.5653 ng/mL | IC50 [4]: 150 to 1920 nM | solubility compared with batimastat [5]: increased solubility | SVMP activity, percentage of the venom-only sample [6]: 11.481% and 22.9494% and 21.3373% | SVMP activity, percentage of the venom-only sample ([7]; inhibitor 15 µM): 33.0579% and 34.1722% and 57.3186% | SVMP activity, percentage of the venom-only sample ([7]; inhibitor 150 µM): 29.6154% and 33.7275% and 43.4535% | SVMP activity, percentage of the venom-only sample ([8]; inhibitor 15 µM): 19.3205% and 20.8108% and 21.1203% | SVMP activity, percentage of the venom-only sample ([8]; inhibitor 150 µM): 18.1136% and 19.6025% and 15.3204% | SVMP activity, percentage of the venom-only sample ([9]; inhibitor 15 µM): 15.1667% and 15.8748% and 15.6727% | SVMP activity, percentage of the venom-only sample ([9]; inhibitor 150 µM): 14.1911% and 15.0205% and 14.976%
